The source made the active and inactive calls. How the calls were made is not given here.
What follows are compounds tested against Induced myeloid leukemia cell differentiation protein Mcl-1 (Homo sapiens) (UniProt Q07820) (assay: blockers of Bid binding to Mcl-1 – biochemical, TR-FRET, dose response (AID 1418)). Conditions: Mcl-1/Bid peptide binding, TR-FRET (europium/Dy647), 2 hr.
Chain of Induced myeloid leukemia cell differentiation protein Mcl-1 (Homo sapiens) (Q07820 whole entry, looked up): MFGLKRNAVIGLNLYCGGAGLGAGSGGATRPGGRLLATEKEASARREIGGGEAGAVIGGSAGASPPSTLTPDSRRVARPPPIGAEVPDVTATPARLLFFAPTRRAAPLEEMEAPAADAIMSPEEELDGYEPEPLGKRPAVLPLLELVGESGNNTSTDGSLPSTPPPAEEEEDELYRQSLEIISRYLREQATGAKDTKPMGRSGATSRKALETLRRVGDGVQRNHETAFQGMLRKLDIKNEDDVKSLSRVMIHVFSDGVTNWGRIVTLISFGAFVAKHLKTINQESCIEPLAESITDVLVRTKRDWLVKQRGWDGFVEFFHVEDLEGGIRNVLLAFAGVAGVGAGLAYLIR

Structure (SMILES) | IC50
CSc1nc(C)cc(OCC(=O)n2nc(C)cc2C)n1 | > 54 µM (inactive)
COc1ccccc1NC(=O)C(=O)N/N=C/c1ccc([N+](=O)[O-])s1 | > 54 µM (inactive)
CCOc1ccc2nc(NC(=O)c3cccc(-c4cc5ccccc5oc4=O)c3)sc2c1 | 1.94 µM
Cc1ccc(S(=O)(=O)CCC(=O)OCC(=O)Nc2ncc(Cl)cc2Cl)cc1 | > 54 µM (inactive)
Cc1ccc(-c2nnc(SCC(=O)N/N=C/c3ccc(C)s3)n2-c2ccc(C)cc2)cc1 | > 54 µM (inactive)
O=c1[nH]c(-c2ccccc2Cl)nc2c1sc(=S)n2-c1ccccc1 | > 54 µM (inactive)
Cc1cccc(-n2c(SCC(=O)Nc3nnc(C)s3)nnc2-c2ccoc2C)c1 | > 54 µM (inactive)
COc1ccc(/C=C2\C(=O)NC(=S)N2C(=O)c2ccc(F)cc2)cc1 | 8.97 µM
N=c1oc2cc(O)ccc2cc1C(=O)Nc1nc2ccccc2s1 | > 54 µM (inactive)
COc1cc2c(cc1OC)C(Nn1cnnc1)=NC1(CCCC1)C2 | > 54 µM (inactive)
N#C/C(=C\c1ccc(N2CCCC2)c([N+](=O)[O-])c1)c1nc2ccccc2[nH]1 | 21.6 µM
O=C(O)CCCC(=O)Nc1cccc(C(=O)Nc2ccccc2C(=O)O)c1 | > 54 µM (inactive)
COc1cc(/C=C2\SC(=O)N(c3cccc(Cl)c3)C2=O)cc([N+](=O)[O-])c1O | 6.38 µM
CN1CCN(C(=S)c2cn(Cc3ccccc3F)c3ccccc23)CC1 | > 54 µM (inactive)
Cc1ccc(-c2ccc(/C=C3/NC(=O)NC3=O)o2)cc1[N+](=O)[O-] | inactive
COc1ccc(N2C(=O)/C(=C/C=C/c3ccccc3[N+](=O)[O-])C(=O)NC2=S)cc1 | 1.05 µM
CCc1ccc(NC(=S)NC2CC3CCC(C2)N3Cc2ccco2)cc1 (stereo not given) | > 54 µM (inactive)
COc1ccc(N2CCN(C(=O)c3ccc4c(c3)OCO4)CC2)cc1 | > 54 µM (inactive)
CN1CCN2c3ccc(N)cc3CC3(C(=O)NC(=O)NC3=O)C2C1 (stereo not given) | 0.48 µM
O=C(/C=C/c1cccs1)Nc1scc(-c2ccccc2)c1C(=O)O | 0.54 µM

Structure (SMILES) | IC50
O=C(CSc1ccccn1)Nc1ccc2c(c1)C(=O)c1ccccc1C2=O | 1.72 µM
Cc1ccc(-n2c(C)n[nH]c2=S)cc1C | > 54 µM (inactive)
COC(=O)c1c(C)[nH]c(C)c1C(C)=O | 0.54 µM
Cc1ccc(NC(=S)N2CCN(c3ncccn3)CC2)cc1C | > 54 µM (inactive)
C=CC(c1ccccc1)C(C(=O)c1ccccc1)N(C)C (stereo not given) | > 54 µM (inactive)
Nc1cccc(C(=O)OCC(=O)Nc2cccc3c2C(=O)c2ccccc2C3=O)c1 | 2.38 µM
Clc1ccc2nc(CN3CCCc4ccccc43)cn2c1 | > 54 µM (inactive)
O=C(NCC1CCCO1)c1cc([N+](=O)[O-])ccc1Cl (stereo not given) | > 54 µM (inactive)
CN(Cc1ccccc1)Cc1nc2c([nH]1)c(=O)[nH]c(=O)n2C | > 54 µM (inactive)
O=C(Nc1ccc2oc(=O)ccc2c1)c1ccc(-c2cccc([N+](=O)[O-])c2)o1 | 0.65 µM
Cc1ccc2nc(NC(=O)c3cccc(-c4cc5ccccc5oc4=O)c3)sc2c1 | 0.99 µM
CC(C)N(C(=O)c1sc2cc([N+](=O)[O-])ccc2c1Cl)C(C)C | > 54 µM (inactive)
CC(=O)c1ccc(NC(=O)C(C)n2c3ccccc3c3nc(=O)cc(C)n32)cc1 (stereo not given) | > 54 µM (inactive)
COc1ccc(C2Nc3ccccc3C(=O)N2O)cc1OC (stereo not given) | > 54 µM (inactive)
O=S(=O)(c1cccc(-c2nnc(SC(F)F)n2-c2ccccc2)c1)N1CCCCC1 | > 54 µM (inactive)
O=C(O)COc1ccccc1C(Nc1cccnc1)c1cc(Cl)c2cccnc2c1O (stereo not given) | 2.52 µM
CCn1c(C)cc(/C=C2\NC(=O)N(Cc3ccc(Cl)cc3)C2=O)c1C | 9.26 µM
CC(C)c1[nH]nc2c1C(c1cccnc1)C(C#N)=C(N)O2 (stereo not given) | > 54 µM (inactive)
Cc1ccc(NC(=O)Cn2c(O)c(N=NC(=O)c3cc4ccccc4cc3O)c3ccccc32)cc1 | 6.65 µM
O=C(O)COc1ccc(/C=N/NC(=O)c2ccc(-c3csc(Nc4ccc(Cl)cc4)n3)cc2)cc1 | 1.43 µM
